Earlier results, collected in patent US20080249080A1, “Benzodiazepine Derivatives and Uses Thereof on Medical Field” (priority 2005, published 2008).

How the values were obtained:
[1] = tested on: RET/C634R and RET/M918T mutants; details: cited from earlier work
[2] = tested on: RET/E768D, RET/L790F, RET/Y791F, RET/A883F and RET/S891A mutants; details: cited from earlier work
[3] = tested on: RET/V804L and RET/V804M mutants; details: cited from earlier work
[4] = tested on: RET/C634R transformed RAT1 fibroblasts; details: 1 μl of ZD6474; cited from earlier work
[5] = tested on: RET/V804L and RET/V804M transformed cells; details: same concentration (1 μl of ZD6474); cited from earlier work

## COc1cc2c(Nc3ccc(Br)cc3F)ncnc2cc1OCC1CCN(C)CC1 [ZD6474]
[1]
  block of the transforming activity: able to block
[2]
  inhibition of in vivo self-phosphorylation: inhibited effectively
[3]
  sensitivity to the action of inhibitors: less sensitive
[4]
  proliferation: reduces strongly
[5]
  growth: no effect
